Like-named read-outs stand apart in the source and are kept apart here.
Experiments:
Type in all cases: cell-based
[1] = system: T47D cells expressing mutant PI3Ka (H1047R); test: In vitro cell proliferation, T47D cells (CellTiter-Glo); conditions: inhibition of proliferation, read-out: Avg T-47D EC50
How it was run: (§1)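 T47D cells in RPMI/10% FBS/insulin (0.2 units/mL) or SKBR3 in McCoys 5a/10% FBS, 1,500 cells/well, grown 72 h at 37 °C with 10-point compound dilutions. CellTiter-Glo luminescence; % inhibition normalised to 0.1% DMSO and 10 uM Alpelisib, EC50 from four-parameter curve fit.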

[2] = system: phosphorylation of AKT (pAKT) in T47D cells expressing mutant PI3Ka (H1047R); test: In vitro cell pAKT (Ser473) HTRF, T47D cells; conditions: cellular pAKT, T47D cells, mutant PI3Ka (H1047R), 6 hours, read-out: Avg T-47D IC50
How it was run: (§2)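 Cells seeded on plates pre-stamped with 10-point compound dilutions, then grown 6 h at 37 °C (T47D in RPMI/10% FBS/insulin; SKBR3 in McCoy's 5a/10% FBS). Lysates read for pAKT Ser473 by HTRF after overnight antibody incubation. Inhibition normalised to 0.1% DMSO and 10 uM alpelisib; IC50 by four-parameter fit.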

[3] = system: SKBR3 cells express WT PI3Ka; test: In vitro cell proliferation, SKBR3 cells (CellTiter-Glo); conditions: inhibition of proliferation
How it was run: as §1

[4] = system: phosphorylation of AKT (pAKT) in SKBR3 cells express WT PI3Ka; test: In vitro cell pAKT (Ser473) HTRF, SKBR3 cells; conditions: cellular pAKT
How it was run: as §2

Structure (SMILES) | EC50 ([1]; 72 hours) [µM] | IC50 [2] [µM] | EC50 ([3]; 72 hours) [µM] | IC50 ([4]; 6 hours) [µM] | IC50 ([4]; Homo sapiens, SK-BR-3, 6 h) [µM] | EC50 ([3]; Homo sapiens, SK-BR-3, 72 h) [µM] | EC50 ([1]; Homo sapiens, T47D, 72 h) [µM] | IC50 ([2]; Homo sapiens, T47D, 6 h) [µM]
Cc1cc(C(C)Nc2ccccc2C(=O)O)c2cc(N3CCC4(CCN(CC(F)(F)F)CC4)CC3)n(C)c(=O)c2c1 (single isomer, unassigned) [Example 111] | 0.001 to 0.5 | 0.001 to 0.5 | 2 to 15 | 2 to 15 |  |  |  | 
COCCC(=O)N1CCN(c2cc3c(C(C)Nc4ccccc4C(=O)O)cc(C)cc3c(=O)n2C)CC1 (single isomer, unassigned) [Example 112] | 2 to 15 | > 15 | > 15 |  | > 15 |  |  | 
COCCC(=O)N1CCN(c2cc3c(C(C)Nc4ccccc4C(=O)O)cc(C)cc3c(=O)n2C)CC1 (single isomer, unassigned) [Example 113] | 0.001 to 0.5 | 0.5 to 2 | 2 to 15 | > 15 |  |  |  | 
Cc1cc(C(C)Nc2ccccc2C(=O)O)c2cc(N3C[C@@H]4CCCC[C@H]4C3)n(C)c(=O)c2c1 (single isomer, unassigned) [Example 114] | > 15 | > 15 | > 15 | > 15 |  |  |  | 
Cc1cc(C(C)Nc2ccccc2C(=O)O)c2cc(N3C[C@H]4CCCC[C@@H]4C3)n(C)c(=O)c2c1 (single isomer, unassigned) [Example 115] | 0.001 to 0.5 | > 15 | > 15 | > 15 |  |  |  | 
Cc1cc(C(C)Nc2ccccc2C(=O)O)c2cc(N3CCN4CC(F)(F)CC4C3)n(C)c(=O)c2c1 (single isomer, unassigned) [Example 121] | 0.5 to 2 | 0.001 to 0.5 | > 15 | > 15 |  |  |  | 
Cc1cc(C(C)Nc2ccccc2C(=O)O)c2cc(N3CCN4CC(F)(F)CC4C3)n(C)c(=O)c2c1 (single isomer, unassigned) [Example 122] | 2 to 15 | > 15 | > 15 | > 15 |  |  |  | 
Cc1cc(C(C)Nc2ccccc2C(=O)O)c2cc(N3CCN4C(=O)CCC4C3)n(C)c(=O)c2c1 (single isomer, unassigned) [Example 123] | > 15 | > 15 | > 15 | > 15 |  |  |  | 
Cc1cc(C(C)Nc2ccccc2C(=O)O)c2cc(N3CCN4C(=O)CCC4C3)n(C)c(=O)c2c1 (single isomer, unassigned) [Example 124] | 0.5 to 2 | 2 to 15 | > 15 | > 15 |  |  |  | 
COc1cccc(C#Cc2cc3c(C(C)Nc4ccccc4C(=O)O)cc(C)cc3c(=O)n2C)c1 (single isomer, unassigned) [Example 125] | 2 to 15 | > 15 | > 15 | > 15 |  |  |  | 
COc1cccc(C#Cc2cc3c(C(C)Nc4ccccc4C(=O)O)cc(C)cc3c(=O)n2C)c1 (single isomer, unassigned) [Example 126] | 0.001 to 0.5 | 0.001 to 0.5 | > 15 | > 15 |  |  |  | 
Cc1cc(C(C)Nc2ccc(Cl)nc2C(=O)O)c2cc(N3Cc4ccc(F)cc4C3)n(C)c(=O)c2c1 (single isomer, unassigned) [Example 127] | 2 to 15 | > 15 | > 15 | > 15 |  |  |  | 
Cc1cc(C(C)Nc2ccc(Cl)nc2C(=O)O)c2cc(N3Cc4ccc(F)cc4C3)n(C)c(=O)c2c1 (single isomer, unassigned) [Example 128] | 0.001 to 0.5 | 0.001 to 0.5 | 2 to 15 | 2 to 15 |  |  |  | 
Cc1cc(C(C)Nc2ccccc2C(=O)O)c2cc(N3CCN(C(=O)OC(C)C)CC3)n(C)c(=O)c2c1 (single isomer, unassigned) [Example 131] | 2 to 15 | > 15 | > 15 | > 15 |  |  |  | 
CCOc1ccc(-c2cc3c(C(C)Nc4ccccc4C(=O)O)cc(C)cc3c(=O)n2C)cn1 (single isomer, unassigned) [Example 132] | 0.001 to 0.5 | 0.001 to 0.5 |  |  | > 15 | > 15 |  | 
CCOc1ccc(-c2cc3c(C(C)Nc4ccccc4C(=O)O)cc(C)cc3c(=O)n2C)cn1 (single isomer, unassigned) [Example 133] | 2 to 15 | > 15 | > 15 | > 15 |  |  |  | 
Cc1cc(C(C)Nc2ccccc2C(=O)O)c2cc(N3CCN4C(=O)CCC4C3)n(C)c(=O)c2c1 (single isomer, unassigned) [Example 134] |  |  |  |  | > 15 | > 15 | 2 to 15 | > 15

Structure (SMILES) | EC50 ([1]; 72 hours) [µM] | IC50 [2] [µM] | EC50 ([3]; 72 hours) [µM] | IC50 ([4]; 6 hours) [µM] | IC50 ([4]; Homo sapiens, SK-BR-3, 6 h) [µM] | EC50 ([3]; Homo sapiens, SK-BR-3, 72 h) [µM] | EC50 ([1]; Homo sapiens, T47D, 72 h) [µM] | IC50 ([2]; Homo sapiens, T47D, 6 h) [µM]
CC(=O)N1CCC2(CC1)CCN(c1cc3c(C(C)Nc4ccccc4C(=O)O)cc(C)cc3c(=O)n1C)CC2 (single isomer, unassigned) [Example 135] | 2 to 15 | > 15 | > 15 | > 15 |  |  |  | 
CC(=O)N1CCC2(CC1)CCN(c1cc3c(C(C)Nc4ccccc4C(=O)O)cc(C)cc3c(=O)n1C)CC2 (single isomer, unassigned) [Example 136] | 0.001 to 0.5 | 0.001 to 0.5 | 2 to 15 | 2 to 15 |  |  |  | 
Cc1cc(C(C)Nc2ccccc2C(=O)O)c2cc(N3CCN4CCC[C@@H]4C3)n(C)c(=O)c2c1 (single isomer, unassigned) [Example 137] |  |  |  |  | > 15 | > 15 | 0.5 to 2 | 0.001 to 0.5
Cc1cc(C(C)Nc2ccccc2C(=O)O)c2cc(N3CCN4CCC[C@H]4C3)n(C)c(=O)c2c1 (single isomer, unassigned) [Example 138] | > 15 | > 15 |  |  | > 15 | > 15 |  | 
Cc1cc(C(C)Nc2ccccc2C(=O)O)c2cc(N3CCN4CCC[C@H]4C3)n(C)c(=O)c2c1 (single isomer, unassigned) [Example 139] | 0.5 to 2 | 0.5 to 2 | > 15 | > 15 |  |  |  | 
Cc1cc(C(C)Nc2ccccc2C(=O)O)c2cc(N3CCN4C(=O)OC[C@H]4C3)n(C)c(=O)c2c1 (single isomer, unassigned) [Example 141] | > 15 | > 15 |  |  | > 15 | > 15 |  | 
Cc1cc(C(C)Nc2ccccc2C(=O)O)c2cc(N3CCN4C(=O)OC[C@H]4C3)n(C)c(=O)c2c1 (single isomer, unassigned) [Example 142] | 0.5 to 2 | 2 to 15 | > 15 | > 15 |  |  |  | 
Cc1cc(C(C)Nc2ccccc2C(=O)O)c2cc(C#Cc3cccc(Cl)c3)n(C)c(=O)c2c1 (single isomer, unassigned) [Example 143] |  | > 15 |  |  | > 15 | > 15 | > 15 | 
Cc1cc(C(C)Nc2ccccc2C(=O)O)c2cc(C#Cc3cccc(Cl)c3)n(C)c(=O)c2c1 (single isomer, unassigned) [Example 144] | > 15 | 0.5 to 2 | > 15 | > 15 |  |  |  | 
Cc1cc(C(C)Nc2ccccc2C(=O)O)c2cc(N3CCN(c4ccc(C)nc4)CC3)n(C)c(=O)c2c1 (single isomer, unassigned) [Example 145] |  |  |  |  | 2 to 15 | 2 to 15 | 0.001 to 0.5 | 0.001 to 0.5
Cc1cc(C(C)Nc2ccccc2C(=O)O)c2cc(N3CCN(c4ccc(C)nc4)CC3)n(C)c(=O)c2c1 (single isomer, unassigned) [Example 146] | 2 to 15 | > 15 | > 15 | > 15 |  |  |  | 
Cc1cc(C(C)Nc2ccccc2C(=O)O)c2cc(N3CCN(C(=O)OC(C)C)CC3)n(C)c(=O)c2c1 (single isomer, unassigned) [Example 149] | 0.001 to 0.5 | 0.001 to 0.5 | 2 to 15 | 2 to 15 |  |  |  | 
Cc1cc(C(C)Nc2ccccc2C(=O)O)c2cc(N3CCS(=O)(=O)CC3)n(C)c(=O)c2c1 (single isomer, unassigned) [Example 150] | 2 to 15 | 2 to 15 |  |  | > 15 | > 15 |  | 
Cc1cc(C(C)Nc2ccccc2C(=O)O)c2cc(N3CCS(=O)(=O)CC3)n(C)c(=O)c2c1 (single isomer, unassigned) [Example 151] | > 15 | > 15 | > 15 | > 15 |  |  |  | 
COC1(C)CCN(c2cc3c(C(C)Nc4ccccc4C(=O)O)cc(C)cc3c(=O)n2C)CC1 (single isomer, unassigned) [Example 153] | 0.001 to 0.5 | 0.001 to 0.5 | 2 to 15 | 2 to 15 |  |  |  | 
COC1(C)CCN(c2cc3c(C(C)Nc4ccccc4C(=O)O)cc(C)cc3c(=O)n2C)CC1 (single isomer, unassigned) [Example 154] | 2 to 15 | > 15 | > 15 | > 15 |  |  |  | 
COc1ccc(-c2cc3c(C(C)Nc4ccccc4C(=O)O)cc(C)cc3c(=O)n2C)cn1 (single isomer, unassigned) [Example 155] | 0.001 to 0.5 | 0.001 to 0.5 |  |  | > 15 | > 15 |  | 
